Measured values taken from patent publication US20180291070A1, “PEPTIDES, AND USES THEREOF” (priority 2015, published 2018).
“And” between values parts separate entries of the source, which are not always exact repeats. Equal entries are not always repeated.

Each substance was assayed on TNF-α (assay: TNF-α secretion by LPS-stimulated THP-1 differentiated macrophages (Biolegend ELISA)). Conditions: THP-1 cells; 100, 10 or 1 ng/ml synthetic peptide 24 h, then 10 ng/ml LPS 5 h; vs untreated control.
Assay type: cell-based, human
Method: TNF-α is secreted by macrophages in response to stimulation by endotoxins such as lipopolysaccharides (LPS). TNF-α is thought to be involved in systemic inflammation and dysregulation of TNF-α production is thought to be involved in many diseases. The Biolegend assay is a sandwich ELISA kit that is designed for the accurate quantitation of human TNF-α from cell culture supernatant, serum or plasma.
THP-1 monocytes were seeded in a 96 well plate at 10,000 cells per well in RPMI containing 10% fetal calf serum (FCS), 1% Pen/strep, 1% L-glutamine, 100 nM PMA and allowed to differentiated for 72 h prior to experimentation.
Following differentiation the cells were incubated with 100 ng/ml, 10 ng/ml or 1 ng/ml synthetic peptide for 24 h respectively.
Following treatment the cells were stimulated with 10 ng/ml LPS for 5 h and the quantity of TNF-α in the supernatant determined using the Biolegend assay ELISA kit.
Results were calculated as a percentage of the untreated control. An increase in optical density reading indicates greater quantity of TNF-α release into cell culture supernatant.
All experiments were prepared in duplicate on three plates (6 wells/conditions). Significance was calculated using Students t-test (*p<0.05 compared to control, **p<0.01 compared to control, *** p<0.001 compared to control).

Row | Substance | TNF-α DECREASE [%]
1 | 75 (IYVTDLNNGANQLDPRQRD) [compound 75] | 11
2 | 76 (VTNLNSQNFPILNLVQMSAVK) [compound 76] | 9
3 | 85 (SIFRALPTDVLANAYRISREE) [compound 85] | 80
4 | 91 (TVFNGELR) [compound 91] | 80
5 | 92 (QVQVVNNNGKTVF) [compound 92] | 13
6 | 93 (YIIQGRGITGPTF) [compound 93] | 14
7 | 105 (LAGNKRNPQAYR) [compound 105] | 9
8 | 144 (AGILEADR) [compound 144] | 16
9 | 320 (KRHGEWRPSYEKEEDEE) [compound 320] | 13
10 | 339 (ASSNLNLLGF) [compound 339] | 26
11 | 341 (RGDTIKLPAGTTSYLVNQDDEE) [compound 341] | 21
12 | 344 (ARLSPGDVVIIPAGHPVAIT) [compound 344] | 20
13 | 345 (RGDTIKLPAGTTSYLVNQDDE) [compound 345] | 23
14 | 346 (ARLSPGDVVIIPAGHPVA) [compound 346] | 18
15 | 349 (LSPGDVVIIPAGHPVAITASSNLNLLGFGINAENNER) [compound 349] | 6
16 | 350 (ARLSPGDVVIIPAGHPVAITAS) [compound 350] | 80
17 | 351 (LSPGDVVIIPAGHPVAITASSNL) [compound 351] | 18
18 | 352 (ARLSPGDVVIIPAGHPVAITA) [compound 352] | 23
19 | 353 (HGPVEMPYTLLYPSSK) [compound 353] | 20

Same assay, conditions: THP-1 differentiated macrophages treated 24 hrs. prior to LPS stimulation

Row | Substance | TNF-α secretion reduced vs. untreated cells [%]
20 | QSFLLSGNQ [E_1_788] | 80

What follows are substances tested on Human Dermal Fibroblasts (HDF) (assay: BrdU Cell Proliferation Assay). Conditions: 5, 0.5 or 0.05 μg/ml synthetic peptide 24 h.
Assay type: cell-based
Method: BrDu is incorporated into newly synthesised DNA strands of actively proliferating cells. Following partial denaturation of double stranded DNA, Brdu is detected immunochemically allowing the assessment of the population of cells which are synthesizing DNA. Human Dermal Fibroblasts (HDF—Sigma 10605a) were seeded in a 96 well plate at 10,000 cells per well in DMEM containing 10% fetal calf serum (FCS), 1% Pen/strep, 1% L-glutamine and allowed to adhere for 24 h. Following the initial 24 h incubation the cells were incubated with 5 μg/ml, 0.5 μg/ml or 0.05 μg/ml synthetic peptide for 24 h respectively. After 18 h incubation with synthetic peptides 20 μl BrDu reagent was added to each well. At 24 h incubation the cell were fixed and the amount of […] was measured using the BrdU Cell Proliferation Assay, all steps were carried out according to the manufacturer's instructions. Results were calculated as a percentage of the untreated control. An increase in optical density reading indicates greatER incorporation of BrDu and increase cell proliferation.

Row | Substance | INCREASE IN PROLIFERATION
21 | 73 (SIFRALPNDVLANAYRISREE) [compound 73] | 16%
22 | 74 (SIFRALPND) [compound 74] | 29%
23 | 83 (SYQDVYNVAESS) [compound 83] | 32%
24 | 84 (ISREEAQR) [compound 84] | 20%
25 | 85 (SIFRALPTDVLANAYRISREE) [compound 85] | 35%
26 | 93 (YIIQGRGITGPTF) [compound 93] | 26%
27 | 97 (GEIVRVER) [compound 97] | 26%
28 | 98 (RGLSLLQPYASLQ) [compound 98] | 49%
29 | 105 (LAGNKRNPQAYR) [compound 105] | 40%
30 | 112 (GEELGAFTPR) [compound 112] | 15%
31 | 114 (SIEQHSGQNIFSGFNNELLSEALGVNALVAK) [compound 114] | 119%
32 | 121 (PNVNPWHNPRQGGF) [compound 121] | 48%
33 | 124 (FYNEGDAPVVAL) [compound 124] | 15%
34 | 146 (VFIDHPSFLEK) [compound 146] | 80%
35 | 158 (NNQRNFLAGDEDNVISQIQRPVKE) [compound 158] | 21%
36 | 181 (DLAIPVNRPGQLQS) [compound 181] | 33%
37 | 222 (DDEEEEQGEEEINK) [compound 222] | 110%
38 | 226 (KEDDEEEEQGEEEINK) [compound 226] | 30%
39 | 247 (LVDLVIPVNGPGKFEAFDLAK) [compound 247] | 28%
40 | 248 (DNVISQIENPVKE) [compound 248] | 86%
41 | 249 (VVIIPAGHPVAITASSNLNLLGFG) [compound 249] | 30%
42 | 252 (VIPVNGPGKF) [compound 252] | 111%
43 | 253 (SKKSLPSE) [compound 253] | 112%

Row | Substance | INCREASE IN PROLIFERATION
44 | 256 (IPVNGPGKF) [compound 256] | 117%
45 | 257 (LPQHIDADL) [compound 257] | 118%
46 | 270 (HGEWRPSYEKQEDEEEK) [compound 270] | 47%
47 | 272 (PSYEKEEDEEEGQR) [compound 272] | 97%
48 | 285 (VVIIPAGHPVA) [compound 285] | 81%
49 | 330 (NKNQYLRGFS) [compound 330] | 18%
50 | 337 (NKNQYLRGFSKNILE) [compound 337] | 8%
51 | 341 (RGDTIKLPAGTTSYLVNQDDEE) [compound 341] | 83%
52 | 359 (GTSSVINNLPLDVVAATFNLQRNE) [compound 359] | 15%
53 | 365 (AGTSSVINNLPLDV) [compound 365] | 58%
54 | 403 (HPVAVRASSNLNLLGFGINAE) [compound 403] | 51%
55 | 410 (TLFLPQYTDADFILVVLSGK) [compound 410] | 73%
56 | 452 (YYGEQQQQPGMTR) [compound 452] | 76%
57 | 453 (SYEESMPMPLEQGWSSSSSE) [compound 453] | 25%
58 | 454 (YYGEGSSEEGYYGEQQQQPGMTR) [compound 454] | 38%
59 | 455 (QQQQPGMTRV) [compound 455] | 47%
60 | 457 (SYEESMPMPLEQGWSSSSSEY) [compound 457] | 114%
61 | 460 (GEGSSEEGYYGEQQQQPGMTR) [compound 460] | 38%
62 | 461 (YGEGSSEEGYYGEQQQQPGMTR) [compound 461] | 85%
63 | 462 (QQQQPGMTRVR) [compound 462] | 15%
64 | 463 (QYAAQLPSMCRVEPQQCSIFAAGQY) [compound 463] | 100%
65 | 464 (TVFNGVLRPGQL) [compound 464] | 18%
66 | 465 (TVFNGVLRPGQLL) [compound 465] | 96%

Row | Substance | INCREASE IN PROLIFERATION
67 | 467 (NGVLRPGQL) [compound 467] | 90%
68 | 468 (ALVAKRLQGQNDQRGEI) [compound 468] | 82%
69 | 470 (PRYSNTPGMV) [compound 470] | 119%
70 | 471 (YSNTPGMVY) [compound 471] | 38%
71 | 472 (LVPRYSNTPGM) [compound 472] | 77%
72 | 473 (FYNEGDAPVV) [compound 473] | 41%
73 | 474 (FYNEGDAPVVAL) [compound 474] | 121%
74 | 477 (FYNEGDAPVVA) [compound 477] | 81%
75 | 478 (EVEERSQNIF) [compound 478] | 76%
76 | 479 (VEERSQNIFSGF) [compound 479] | 106%
77 | 480 (ASLQEQEQGQVQ) [compound 480] | 102%
78 | 482 (ASLQEQEQGQVQSR) [compound 482] | 113%
79 | 495 (SGFSTELLSEALGVSSQVAR) [compound 495] | 68%
80 | 496 (GAFTPLQYKSYQD) [compound 496] | 51% and 81%
81 | 497 (GLLLPHYTNGASLVY) [compound 497] | 58%
82 | 499 (ALPTDVLANAYR) [compound 499] | 113%
83 | 500 (DFLLAGNK) [compound 500] | 6%
84 | 501 (DVLANAYR) [compound 501] | 43%
85 | 502 (GAFTPLQYK) [compound 502] | 68%
86 | 503 (QGDVIALPAGVAHW) [compound 503] | 125%
87 | 504 (FGAFTPLQYKSY) [compound 504] | 119%
88 | 505 (FLLAGNKRNPQAYR) [compound 505] | 118%
